Measured values: patent EP3434255A1, “IONTOPHORESIS METHOD, COMPOSITION AND KIT FOR DELIVERING N-ACETYL-3-TRIFLUOROMETHYL-PHENYL-(VALINE-GLYCINE) THROUGH THE SKIN” (priority 2017, dated 2019)

Key:
[1] = system: Dermatomed porcine ear skin; format: in vitro ADME; details: 1 % w/v in HEPES buffer (pH 7.15) containing 25 mM sodium chloride
Method: Untreated porcine ears were procured from a local slaughter house. Dorsal side of the porcine ears was used for the study.. For study #4, dermatomed porcine skin was prepared by dermatoming full thickness skin using Dermatome 75 mm (Nouvag AG TCM 3000, Goldach, Switzerland).
Dermatome is a surgical instrument used to produce thin slices of skin. Dermatoming is refering to the procedure to produce thin layers of the skin by using such device.
In vitro permeation study was performed using Franz diffusion cells (PermeGear V6 station vertical cell). These models contain 6 diffusion cells in each console with 5 ml receptor volume and 9 mm orifice. The diffusion area was 0.64 cm^2.
After washing the cells, receptor solution was left overnight and replaced with fresh sodium chloride solution (0.9 % w/v), 30 minutes prior to mounting the skin. The receptor chamber temperature was maintained at 37°C by the built-in water circulation jacket so as to attain the skin temperature of 32°C.
Skin pieces were then mounted between the donor and receptor compartment (containing 0.9 % (w/v) sodium chloride solution) of Franz diffusion cells with the stratum corneum facing towards the donor side.
The formulation (160 mg formulation containing 1.6 mg active/0.64 sq.cm) was applied in the donor chamber using a positive displacement pipette (Rainin PosD). Simplex formulation was applied in the donor chamber. The donor compartment was left open to mimic in vivo conditions. Six replicates (with the exception of preliminary study 4) were performed for each formulation for each test group (iontophoresis and corresponding passive control - "no current" group) as specified in Table 1 as follows. In the Table 1, the "active agent" is N-acetyl-3-trifluoromethyl-phenyl-(valine-glycine).
Current (0.2 mA/sq.) was applied using silver/silver chloride electrode system and a constant current source (Keithley®; Keithley Instruments, Cleveland, OH, USA). […] Current application was monitored with a chronometer. […]
Receptor samples were taken after stopping the current for the defined duration, which was 20 min in all the studies except study #4, in which sampling was performed at 5, 10, 20, 60, 120, and 240 min. […] The receptor samples were filtered and quantified with methanol calibration using LCMS.
All samples were analyzed by a validated LCMS method which was performed on an Agilent 6410 Triple Quad System to determine how much of the cosmetic agent passed into and through the skin.
Results of the studies were plotted as average amount of active permeated in receptor, quantity of the active in tape strips, and underlying skin for each test group (passive or iontophoresis treatment group). […]

pKa of the active agent = format: physicochemical

average cumulative amount of active delivered after 20 min ([1]; anodal iontophoresis 0.2 mA/sq.cm compared with passive and cathodal iontophoresis, p<0.05): significantly higher
permeation of the active agent through dermatomed porcine skin over 4 h study duration ([1]; anodal iontophoresis 0.2 mA/sq.cm for 2 h compared with passive and cathodal iontophoresis, p<0.05): significantly enhance
cumulative active permeation after 20 min ([1]; cathodal iontophoresis 0.2 mA/sq.cm compared with passive, p>0.05): no significant difference
cumulative active permeation after 4 h ([1]; cathodal iontophoresis 0.2 mA/sq.cm for 2 h compared with passive, p>0.05): no significant difference
pKa (pKa of the active agent): 3.3
Structure (SMILES): CC(=O)N(c1cccc(C(F)(F)F)c1)C(C(=O)NCC(=O)O)C(C)C (centres unmarked) [active agent, N-acetyl-3-trifluoromethyl-phenyl-(valine-glycine)]
